Laboratory results: article PMC6314830 (Science Advances, 2019)

System: mouse skin
Experiment: Topical application to uninfected mouse skin
Format: in vivo
Settings: repeated daily topical treatments of the skin

Structure (SMILES): CC[C@H](C)[C@H](N)C(=O)N[C@@H](CC(N)=O)C(=O)N[C@@H](CC(C)C)C(=O)N[C@@H](CCCCN)C(=O)N[C@@H](C)C(=O)N[C@@H](CC(C)C)C(=O)N[C@@H](C)C(=O)N[C@@H](C)C(=O)N[C@@H](CC(C)C)C(=O)N[C@@H](C)C(=O)N[C@@H](CCCCN)C(=O)N[C@@H](CCCCN)C(=O)N[C@H](C(=O)N[C@@H](CC(C)C)C(=O)O)[C@@H](C)CC [Mastoparan]
- Local or systemic adverse effects: did not observe any local or systemic adverse effects
